From US20230190760A1, “ADVANTAGEOUS THERAPIES FOR DISORDERS MEDIATED BY IKAROS OR AIOLOS” (C4 Therapeutics, Inc., priority 2020, published 2023)

Experiments:
Assay in all cases: Anti-proliferative activity, 96 hours
Farage = test system: Farage
SU-DHL-2 = conditions: Homo sapiens, SU-DHL-2, 96 h
HH = conditions: Homo sapiens

O=C1CC[C@H](N2C(=O)c3cccc4c(Cc5ccc(CN6CCOCC6)cc5)ccc2c34)C(=O)N1 (single isomer, unassigned) [Compound 1]
IC50 (Farage): 56.3 nM | IC50 (SU-DHL-2): 4.55 nM | IC50 (HH): 58 nM
